According to US20130071400A1, “LINGO binding molecules and Pharmaceutical Use Thereof” (NOVARTIS AG, priority 2006, published 2013):

Tested on: postnatal day 7 rat cerebellar granule neurons (CGN)
Assay: Neurite outgrowth inhibition assay on spinal cord myelin
Format: cell-based
Experimental: A) P7 CGN cells are incubated for 16 hr on wells coated without spinal cord myelin (no SC, white bars) or wells coated with spinal cord myelin in the absence (SC, red bars) or presence of anti-LINGO-1 IgG4 antibodies, a control anti-lysozyme IgG4 antibody 3207 (green bars) or […] of the ROCK inhibitor Y27632 (yellow bar). […] The experiment is performed in three 96 well plates with an SC and no SC condition per plate to which the effects of the antibodies on that plate are compared and mean neurite length per neuron (μm) is calculated for 500 neurons per well in replicates of 10. The percentage inhibition (white text) is calculated as the percentile difference in mean neurite length/neuron between cells plated on wells coated with and without SC. The percentage disinhibition (black italic text) is calculated as the difference in mean neurite length between cells plated on SC in the presence and absence of anti-LINGO-1 antibody as a percentile of the difference between cells plated on wells coated with and without SC. *p<0.05, **p<0.01 (one way ANOVA, Holm-Sidak comparison to mean neurite length/neuron for cells plated on spinal cord myelin in the absence of antibody).
A) P7 CGN cells are incubated for 8 hr on wells coated without spinal cord myelin (no SC, white bars) or wells coated with spinal cord myelin in the absence (SC, red bars) or presence of anti-LINGO-1 IgG4 antibodies or a control anti-lysozyme IgG4 antibody 3207. The experiment is performed in three 96 well plates with an SC and no SC condition per plate to which the effects of the antibodies on that plate are compared and mean neurite length per neuron (μm) is calculated for 500 neurons per well in replicates of 10. The percentage inhibition (white text) and disinhibition (black italic text) is calculated as above. **p<0.01 (one way ANOVA, Holm-Sidak comparison to mean neurite length/neuron for cells plated on spinal cord myelin in the absence of antibody).
P7 CGN cells are incubated for 8 hr on wells coated without spinal cord myelin (no SC) or wells coated with spinal cord myelin in the absence (SC) or presence of the indicated concentrations of anti-LINGO-1 IgG4 antibodies 4784 or 4785, a control anti-lysozyme IgG4 antibody 3207 or 1 μM Y27632 (ROCK). The experiment is performed in three 96 well plates with an SC and no SC condition per plate to which the effects of the antibodies on that plate are compared and mean neurite length per neuron (μm) is calculated for 500 neurons per well in replicates of 10. The percentage inhibition (white text) and disinhibition (black italic text) is calculated as above. *p<0.05, **p<0.01 (one way ANOVA, Holm-Sidak comparison to mean neurite length/neuron for cells plated on spinal cord myelin in the absence of antibody). […]

## C[C@@H](N)[C@H]1CC[C@H](C(=O)Nc2ccncc2)CC1 [Y27632, reference compound]
1 μM Y27632, 8 hr incubation (FIG. 4)
  disinhibition of spinal cord myelin: 65-74%
1 μm Y27632, 16 hr incubation (FIG. 2), compared to 4784 and 4785
  disinhibition of spinal cord myelin (neurite outgrowth): greater level of disinhibition
